Laboratory results as given in ChEMBL document CHEMBL5291721, “A preclinical secondary pharmacology resource illuminates target-adverse drug reaction associations of marketed drugs” (Nat Commun, 2023).

What was measured:
[1] = target: Gamma-aminobutyric acid receptor subunit alpha-1 (Rattus norvegicus, UniProt P62813); type: functional
[2] = target: T1, 5-hydroxytryptamine receptor 3A (Homo sapiens, UniProt P46098); type: functional
T1 sequence (P46098 whole entry): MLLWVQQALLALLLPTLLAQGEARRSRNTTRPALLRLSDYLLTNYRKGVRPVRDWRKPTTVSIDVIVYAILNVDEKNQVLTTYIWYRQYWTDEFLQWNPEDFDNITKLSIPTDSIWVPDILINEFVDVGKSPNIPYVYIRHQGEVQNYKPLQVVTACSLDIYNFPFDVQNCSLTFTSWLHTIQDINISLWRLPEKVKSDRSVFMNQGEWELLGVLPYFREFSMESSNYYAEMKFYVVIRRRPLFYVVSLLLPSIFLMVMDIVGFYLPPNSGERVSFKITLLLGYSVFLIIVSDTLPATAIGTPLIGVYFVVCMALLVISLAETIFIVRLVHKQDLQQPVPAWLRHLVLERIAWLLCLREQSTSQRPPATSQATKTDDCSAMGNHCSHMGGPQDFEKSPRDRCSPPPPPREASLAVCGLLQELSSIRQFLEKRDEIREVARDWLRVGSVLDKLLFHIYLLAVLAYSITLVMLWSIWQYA

[3] = target: T2, Type-1 angiotensin II receptor (Homo sapiens, UniProt P30556)
T2 sequence (P30556 whole entry): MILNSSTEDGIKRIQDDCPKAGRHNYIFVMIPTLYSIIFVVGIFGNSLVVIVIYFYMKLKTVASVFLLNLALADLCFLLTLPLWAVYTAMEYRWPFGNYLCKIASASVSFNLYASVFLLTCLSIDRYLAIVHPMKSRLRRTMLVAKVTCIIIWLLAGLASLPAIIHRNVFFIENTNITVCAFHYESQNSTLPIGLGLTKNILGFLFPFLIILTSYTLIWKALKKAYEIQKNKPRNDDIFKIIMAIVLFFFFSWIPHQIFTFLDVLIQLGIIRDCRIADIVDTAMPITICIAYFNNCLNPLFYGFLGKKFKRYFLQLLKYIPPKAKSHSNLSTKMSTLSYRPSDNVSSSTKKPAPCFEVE

[4] = target: Beta-1 adrenergic receptor (Homo sapiens, UniProt P08588); type: functional
Chain of Beta-1 adrenergic receptor (P08588 whole entry): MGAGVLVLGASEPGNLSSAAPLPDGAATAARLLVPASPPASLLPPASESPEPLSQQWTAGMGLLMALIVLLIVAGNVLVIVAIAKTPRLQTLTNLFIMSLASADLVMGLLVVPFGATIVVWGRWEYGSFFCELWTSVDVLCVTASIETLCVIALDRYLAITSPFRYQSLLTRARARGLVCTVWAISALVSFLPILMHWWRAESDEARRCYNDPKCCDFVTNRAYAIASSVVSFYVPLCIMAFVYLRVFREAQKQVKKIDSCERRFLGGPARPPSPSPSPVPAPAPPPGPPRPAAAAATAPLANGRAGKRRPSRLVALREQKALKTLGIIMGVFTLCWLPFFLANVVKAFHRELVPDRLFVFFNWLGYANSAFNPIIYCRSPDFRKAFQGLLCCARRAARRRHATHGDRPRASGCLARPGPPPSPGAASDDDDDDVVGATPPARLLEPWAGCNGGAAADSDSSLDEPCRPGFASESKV

[5] = target: T3, Glucocorticoid receptor (Homo sapiens, UniProt P04150)
T3 sequence (P04150 whole entry): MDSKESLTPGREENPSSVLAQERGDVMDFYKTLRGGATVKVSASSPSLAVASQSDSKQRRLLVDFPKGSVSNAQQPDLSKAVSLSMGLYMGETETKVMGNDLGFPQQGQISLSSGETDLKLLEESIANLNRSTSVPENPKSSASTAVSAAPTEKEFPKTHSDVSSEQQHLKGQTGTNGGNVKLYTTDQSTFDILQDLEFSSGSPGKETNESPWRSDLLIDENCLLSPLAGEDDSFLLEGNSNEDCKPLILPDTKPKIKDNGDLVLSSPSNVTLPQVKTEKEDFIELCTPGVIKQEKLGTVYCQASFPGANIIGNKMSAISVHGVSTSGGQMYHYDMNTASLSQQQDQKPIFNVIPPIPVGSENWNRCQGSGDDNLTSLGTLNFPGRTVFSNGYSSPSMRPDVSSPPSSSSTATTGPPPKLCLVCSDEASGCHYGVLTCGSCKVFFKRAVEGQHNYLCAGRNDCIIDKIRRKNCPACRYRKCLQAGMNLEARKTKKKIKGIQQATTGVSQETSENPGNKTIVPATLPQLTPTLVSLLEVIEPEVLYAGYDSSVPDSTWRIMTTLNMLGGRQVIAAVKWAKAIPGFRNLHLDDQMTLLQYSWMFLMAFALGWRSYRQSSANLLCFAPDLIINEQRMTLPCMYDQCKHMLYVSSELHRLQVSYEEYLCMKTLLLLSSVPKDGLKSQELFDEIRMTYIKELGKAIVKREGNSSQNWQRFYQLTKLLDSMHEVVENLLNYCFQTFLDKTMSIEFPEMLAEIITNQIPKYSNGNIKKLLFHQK

[6] = target: D(1A) dopamine receptor (Homo sapiens, UniProt P21728); type: functional, cell-based
Chain of D(1A) dopamine receptor (P21728 whole entry): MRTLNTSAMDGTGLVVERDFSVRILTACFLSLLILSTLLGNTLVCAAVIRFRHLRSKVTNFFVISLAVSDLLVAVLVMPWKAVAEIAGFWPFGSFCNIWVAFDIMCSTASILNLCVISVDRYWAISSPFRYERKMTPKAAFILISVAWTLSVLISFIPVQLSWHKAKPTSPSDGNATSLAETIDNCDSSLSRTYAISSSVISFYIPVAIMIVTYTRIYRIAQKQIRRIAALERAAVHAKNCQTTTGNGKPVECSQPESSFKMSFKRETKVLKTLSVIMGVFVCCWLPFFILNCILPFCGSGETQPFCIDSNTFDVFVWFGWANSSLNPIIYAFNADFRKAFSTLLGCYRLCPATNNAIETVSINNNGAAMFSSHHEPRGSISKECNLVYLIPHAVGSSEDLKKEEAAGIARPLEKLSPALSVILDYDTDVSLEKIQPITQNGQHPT

[7] = target: T4, Alpha-2C adrenergic receptor (Homo sapiens, UniProt P18825); type: functional
T4 sequence (P18825 whole entry): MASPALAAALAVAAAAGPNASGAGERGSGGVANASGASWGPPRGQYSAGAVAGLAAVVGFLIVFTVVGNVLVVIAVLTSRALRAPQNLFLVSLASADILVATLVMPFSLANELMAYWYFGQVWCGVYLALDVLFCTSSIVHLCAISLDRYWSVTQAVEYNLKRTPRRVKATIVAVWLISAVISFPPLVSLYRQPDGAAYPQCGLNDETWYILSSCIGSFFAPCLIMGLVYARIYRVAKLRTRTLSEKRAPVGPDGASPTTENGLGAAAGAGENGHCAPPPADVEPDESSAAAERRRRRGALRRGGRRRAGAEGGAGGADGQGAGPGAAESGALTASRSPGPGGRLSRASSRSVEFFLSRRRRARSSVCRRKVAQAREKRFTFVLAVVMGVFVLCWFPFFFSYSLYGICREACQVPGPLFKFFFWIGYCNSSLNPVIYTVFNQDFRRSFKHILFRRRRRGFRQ
Note: assay procedure not described here.

Chain of Gamma-aminobutyric acid receptor subunit alpha-1 (P62813 whole entry): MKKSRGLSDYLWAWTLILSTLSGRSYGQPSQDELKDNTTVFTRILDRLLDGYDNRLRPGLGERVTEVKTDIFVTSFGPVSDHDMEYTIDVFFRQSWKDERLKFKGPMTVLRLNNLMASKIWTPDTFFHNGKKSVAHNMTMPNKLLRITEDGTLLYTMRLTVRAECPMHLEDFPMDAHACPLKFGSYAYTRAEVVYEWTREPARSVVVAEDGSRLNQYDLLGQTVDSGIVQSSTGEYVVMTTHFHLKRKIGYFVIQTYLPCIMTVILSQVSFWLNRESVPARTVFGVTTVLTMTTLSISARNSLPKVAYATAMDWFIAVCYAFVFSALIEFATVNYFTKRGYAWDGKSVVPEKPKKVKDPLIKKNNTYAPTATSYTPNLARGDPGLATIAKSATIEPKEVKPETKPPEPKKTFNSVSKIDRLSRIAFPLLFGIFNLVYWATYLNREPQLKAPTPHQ

| SMILES | AC50 [1] [µM] | AC50 [2] [µM] | AC50 [3] [µM] | AC50 [4] [µM] | AC50 [5] [µM] | AC50 [6] [µM] | AC50 [7] [µM] |
| --- | --- | --- | --- | --- | --- | --- | --- |
| COc1ccc2c(c1)c(CC(=O)OCC(=O)O)c(C)n2C(=O)c1ccc(Cl)cc1 [ACEMETACIN] | > 30 | > 30 | > 30 | > 30 | > 30 | > 30 | > 30 |
| CC(C)c1c(C(=O)Nc2ccccc2)c(-c2ccccc2)c(-c2ccc(F)cc2)n1CC[C@@H](O)C[C@@H](O)CC(=O)O [ATORVASTATIN] | > 10 | > 30 | > 30 | > 10 | – | – | > 10 |
| CN1C(=O)COc2c(C(=O)NC3CN4CCC3CC4)cc(Cl)cc21 (centres undefined) [AZASETRON] | > 30 | 0.0162 | > 30 | > 30 | – | > 30 | > 30 |
| Cc1cc2c(OCC(CNC(C)(C)C)OC(=O)c3ccccc3)cccc2[nH]1 (centres undefined) [BOPINDOLOL] | > 30 | > 30 | > 30 | 0.0048 | > 30 | > 30 | 3 |
| CCCCN1CCCCC1C(=O)Nc1c(C)cccc1C (centres undefined) [BUPIVACAINE] | > 30 | > 30 | > 30 | > 30 | – | > 30 | > 30 |
| CC(C)(Oc1ccc(C2CC2(Cl)Cl)cc1)C(=O)O (centres undefined) [CIPROFIBRATE] | > 30 | > 30 | > 30 | > 30 | > 30 | > 30 | > 30 |
| Cc1c(O)c(=O)ccn1C [DEFERIPRONE] | > 30 | > 30 | > 30 | > 30 | > 30 | > 30 | > 30 |
| CC(=O)O[C@@]12CO[C@@H]1C[C@H](O)[C@@]1(C)C(=O)[C@H](O)C3=C(C)[C@@H](OC(=O)[C@H](O)[C@@H](NC(=O)OC(C)(C)C)c4ccccc4)C[C@@](O)([C@@H](OC(=O)c4ccccc4)[C@H]21)C3(C)C [DOCETAXEL ANHYDROUS] | > 30 | > 30 | > 30 | > 30 | > 30 | > 30 | > 30 |
| CCNC(C)Cc1cccc(C(F)(F)F)c1 (centres undefined) [FENFLURAMINE] | > 10 | > 30 | > 30 | – | > 30 | – | – |
| COc1c(N2CCNC(C)C2)c(F)cc2c(=O)c(C(=O)O)cn(C3CC3)c12 (centres undefined) [GATIFLOXACIN] | > 10 | > 30 | > 10 | > 10 | > 10 | > 30 | > 10 |
| CCN1CCC[C@H]1CNC(=O)c1cc(S(N)(=O)=O)ccc1OC [LEVOSULPIRIDE] | > 10 | > 30 | > 30 | > 30 | > 30 | > 30 | – |
| Cc1cccc(C)c1NC(=O)C1CCCCN1C (centres undefined) [MEPIVACAINE] | > 30 | > 30 | > 30 | > 30 | > 30 | > 30 | > 30 |
| COc1ccccc1OCC(O)COC(N)=O (centres undefined) [METHOCARBAMOL] | > 10 | > 30 | > 30 | > 10 | > 30 | > 10 | > 10 |
| C[C@]12CCC(=O)C=C1CC[C@@H]1[C@@H]2CC[C@@]2(C)[C@H]1CC[C@]2(C)O [METHYLTESTOSTERONE] | > 30 | > 30 | > 30 | > 30 | 0.44 | > 30 | > 30 |
| NC(=O)C[S+]([O-])C(c1ccccc1)c1ccccc1 (centres undefined) [MODAFINIL] | > 10 | > 10 | > 30 | > 10 | > 30 | > 10 | > 10 |
| COc1c(C)c2c(c(O)c1C/C=C(\C)CCC(=O)OCCN1CCOCC1)C(=O)OC2 [MYCOPHENOLATE MOFETIL] | > 30 | > 30 | > 30 | > 30 | > 30 | > 30 | > 30 |
| CCN(CC)CCOC(=O)c1ccc(N)cc1 [PROCAINE] | > 10 | 22 | > 30 | > 10 | – | > 10 | > 10 |
| CCCOc1ccc(C(=O)OCCN(CC)CC)cc1N [PROPARACAINE] | > 30 | > 30 | > 30 | > 30 | > 30 | > 30 | > 30 |
| Nc1nc2ccc(OC(F)(F)F)cc2s1 [RILUZOLE] | > 30 | > 30 | > 30 | > 30 | > 30 | > 30 | > 30 |
| C#CCN(C)[C@H](C)Cc1ccccc1 [SELEGILINE] | > 10 | > 30 | > 10 | > 10 | > 10 | > 10 | 2.9 |
| O=C1NCCN1CCN1CCC(c2cn(-c3ccc(F)cc3)c3ccc(Cl)cc23)CC1 [SERTINDOLE] | > 30 | > 30 | > 30 | – | – | > 30 | – |
| CN[C@@H]1[C@H](O)[C@H](NC)[C@H]2O[C@@]3(O)C(=O)C[C@@H](C)O[C@H]3O[C@@H]2[C@H]1O [SPECTINOMYCIN] | > 10 | > 30 | > 10 | > 10 | > 10 | > 10 | > 10 |
| CC[C@]1(O)C[C@@H]2CN(CCc3c([nH]c4ccccc34)[C@@](C(=O)OC)(c3cc4c(cc3OC)N(C)[C@H]3[C@@](O)(C(N)=O)[C@H](O)[C@]5(CC)C=CCN6CC[C@]43[C@@H]65)C2)C1 [VINDESINE] | > 30 | > 30 | > 30 | > 30 | > 30 | > 30 | > 30 |
